Laboratory results from PubChem BioAssay (NCI).
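Compound exposure: 48 hours, 5 concentrations, 96-well plates. GI50: concentration for 50% inhibition of growth. TGI: concentration producing complete growth inhibition.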

Columns and labels:
Assay in all cases: inhibition of tumour cell growth, NCI panel, 48 h
[1] = test system: OVCAR-4 ovarian
[2] = test system: CAKI-1 renal
[3] = test system: UACC-62 melanoma
[4] = test system: T-47D breast
[5] = test system: LOX IMVI melanoma
[6] = test system: CCRF-CEM leukemia
[7] = test system: HL-60(TB) leukemia
[8] = test system: MALME-3M melanoma
[9] = test system: RXF 393 renal
[10] = test system: K-562 leukemia

Structure (SMILES) | TGI [1] [µM] | TGI [2] [µM] | TGI [3] [µM] | TGI [4] [µM] | TGI [5] [µM] | TGI [6] [µM] | TGI [7] [µM] | TGI [8] [µM] | TGI [9] [µM] | TGI [10] [µM] | GI50 [1] [µM] | GI50 [2] [µM] | GI50 [3] [µM] | GI50 [4] [µM] | GI50 [5] [µM] | GI50 [6] [µM] | GI50 [7] [µM] | GI50 [8] [µM] | GI50 [9] [µM] | GI50 [10] [µM]
C/C(=N\N=C(N)N)C(CN(C)C)C(c1ccccc1)c1c(O)c2ccccc2oc1=O (stereo not given) | > 100 | > 100 | > 100 | > 100 | > 100 | > 100 | > 100 | > 100 | > 100 | > 100 | – | – | – | – | – | – | – | – | – | –
NC1CCC(N[C@@H]2C[C@H]2c2ccccc2)CC1 (stereo not given in full) | > 100 | > 100 | > 100 | > 100 | > 100 | > 100 | > 100 | 84.7 | > 100 | > 100 | > 100 | 32 | 33.6 | > 100 | 69.6 | 82.8 | > 100 | 21.1 | 59.2 | 29.9
CCNCCCn1c2c(c3ccc([N+](=O)[O-])cc3c1=O)C(=O)c1cc(OC)cnc1-2 | 1.49 | 2.3 | 0.168 | 12 | 0.131 | 1.23 | 0.657 | 0.715 | 0.464 | 1.65 | 0.176 | 0.0406 | 0.0267 | 0.036 | 0.0265 | 0.0366 | 0.037 | 0.162 | 0.136 | 0.0522
COc1ccc(OC)c2c(=S)c3ccccc3[nH]c12 | > 100 | > 100 | > 100 | > 100 | > 100 | > 86.1 | 57.6 | > 100 | > 100 | > 92.6 | – | – | – | – | – | – | – | – | – | –
N#C/C(=C\c1ccc(Br)cc1)n1nnc2ccccc21 | 5.25 | 2 | 1.59 | 4.74 | 1.19 | 16.6 | 2.04 | 2.78 | 1.94 | > 19.7 | 1.5 | 0.345 | 0.358 | 0.376 | 0.319 | 0.357 | 0.287 | 0.727 | 0.427 | 0.235
COc1ccccc1-c1cc(=O)c2ccc(OC)c(OC)c2o1 | > 100 | > 100 | > 100 | 75.5 | > 100 | > 100 | > 100 | > 100 | > 100 | > 100 | – | – | – | – | – | – | – | – | – | –
NC1=Nc2cc(OCCCN3Cc4ccccc4C3)c(OCC3CC3)cc2C12CCCC2 | 16.6 | 11.3 | 3.87 | 4.54 | 2.91 | 9.26 | 4.69 | 3.26 | 3.58 | 4.08 | 3.55 | 2.31 | 1.9 | 1.82 | 1.51 | 2.45 | 2.03 | 1.73 | 1.34 | 0.74
CCSc1nnc(-c2ccc3ccccc3c2O)n1-c1ccc(Cl)cc1 | > 100 | > 100 | > 100 | > 100 | > 100 | > 100 | > 100 | > 100 | > 100 | > 100 | 5.71 | 6.85 | 4.6 | 8.96 | 5.52 | 3.58 | 7.16 | > 100 | 42.3 | 4.04
C=C1C(=O)OC2CC(C)C3C=CC(=O)C3CC12 (stereo not given) | 9.68 | 5.47 | 3.74 | 5.77 | 2.69 | 5.14 | 4.95 | 4.08 | 3.03 | 12.9 | – | – | – | – | – | – | – | – | – | –
NS(=O)(=O)c1ccc(NC(=O)c2cccc3cc4ccccc4nc23)cc1 | > 100 | > 100 | > 100 | > 100 | > 97.3 | > 100 | > 100 | > 100 | > 100 | > 100 | – | – | – | – | – | – | – | – | – | –
O=C(O)C1CCCCC1c1c2ccc(=O)cc-2oc2cc(O)ccc12 (stereo not given) | 88.1 | > 100 | > 100 | 54.4 | > 100 | > 100 | > 100 | > 100 | 62.6 | > 100 | – | – | – | – | – | – | – | – | – | –
Cn1c(=O)c(Oc2ccccc2)cc2cnc(NC3CCOCC3)nc21 | > 25 | > 25 | > 25 | > 25 | > 25 | > 25 | > 25 | > 25 | > 25 | > 25 | > 25 | > 25 | > 25 | > 25 | > 25 | > 25 | > 25 | > 25 | > 25 | > 25
CS(=O)(=O)OCCN(CCOS(C)(=O)=O)c1ccc(C=O)cc1 | 37.6 | 2.08 | 14.5 | > 71.6 | 21.1 | 46.2 | 35.4 | 26.7 | 1.72 | > 100 | – | – | – | – | – | – | – | – | – | –
